Values of other authors, collected in publication PMC13468302, “African Polyherbal Formulations for Type 2 Diabetes: A Systematic Review and Meta-Analysis of Efficacy, Mechanisms, and Therapeutic Potential” (Plants, 2026).

Columns and labels:
[1] = system: alloxan-induced diabetic Wistar rats; conditions: combination at 400 mg/kg; 21 days; ref [49]
[2] = system: HFD + STZ (45 mg/kg)-induced diabetic Sprague Dawley rats; conditions: UL 100 mg/kg, metformin 50 mg/kg, UL+Met 100/50 mg/kg, insulin 2U; 28 days; ref [44]
[3] = system: alloxan-induced diabetic Wistar rats; conditions: 300 mg/kg each orally, 21 days; ref [53]

In the case of `COc1ccc(Cl)cc1C(=O)NCCc1ccc(S(=O)(=O)NC(=O)NC2CCCCC2)cc1` [glibenclamide], the serum glucose reduction [1] is given as 56.5%.
In the case of `CN(C)C(=N)N=C(N)N` [metformin], the fasting glucose change [2] is given as −15.34%.
In the case of insulin, the fasting glucose change [2] is listed as −35.65% and the glucose reduction [3] is listed as 69.1%.
